Data as given in paper PMC12434308 (Nature chemical biology, 2021).

Legend:
SARS-CoV-2 RBD [1] = molecular target: T1, SARS-CoV-2 RBD (Severe acute respiratory syndrome coronavirus 2, UniProt P0DTC2)
SARS-CoV-2 RBD [2] = molecular target: T1, SARS-CoV-2 RBD; remark: listed apart in the source
[3] = system: SARS-CoV-2 pseudotyped lentivirus; assay type: cell-based
ACE2+ HEK293 cells [4] = experiment: fluorescent SARS-CoV-2 RBD trimer binding by flow cytometry; assay type: cell-based
control lentivirus = assay type: cell-based
RBD = conditions: read-out: Kd for the RBD; glycan immobilized, average MW 15,700 Da; cited from earlier work
ACE2 = experiment: anti-ACE2 antibody staining by flow cytometry; assay type: cell-based, human; conditions: ACE2+ HEK293 cells, 3FNeu5Ac treatment
ACE2+ HEK293 cells [5] = experiment: SNA and PNA lectin staining by flow cytometry; assay type: cell-based; conditions: 3 d treatment, 300 μM
Vero-E6 cells = assay type: cell-based
[6] = system: ferret lung tissue sections
SARS-CoV-2 S1 protein = conditions: model sialylated species; cited from earlier work
SARS-CoV-2 S protein = SARS-CoV-2 S protein (Severe acute respiratory syndrome coronavirus 2, UniProt P0DTC2)

## COC1(C(=O)O)CC(O)C(NC(C)=O)C(C(O)C(O)CO)O1 (stereo not drawn) [MeαNeu5Ac, methyl α-sialoside]
SARS-CoV-2 RBD [1]
  relative abundance of released 69 on addition of competitor: qualitatively similar results as 41

## Galα(1-3)[Fucα(1-2)]Galβ(1-4)[Fucα(1-3)]Glc [glycan 87]
SARS-CoV-2 RBD [1]
  ligand released from RBD in presence of excess MeαNeu5Ac: most abundant ligand released

## α-Neu5Ac-(2→3)-β-D-Gal-(1→3)-β-D-GalNAc-(1→4)-[α-Neu5Ac-(2→8)-α-Neu5Ac-(2→3)]-β-D-Gal-(1→4)-β-D-Glc-ceramide [GT1b]
SARS-CoV-2 RBD [2]
  ganglioside ions released from RBD complexes (nanodisc): no signals

## CCCCCCCCC(=O)N[C@H](CN1CCCC1)[C@H](O)c1ccc2c(c1)OCCO2 [GENZ-123346]
[3]
  pseudotyped viral infection of glycolipid-depleted cells: significant decreases
  pseudoviral entry: failed to elicit an effect
ACE2+ HEK293 cells [4]; 5 μM, 48 h
  SARS-CoV-2 RBD binding to glycolipid-depleted cells: significant decreases
Control lentivirus
  infection of control lentivirus: did not show differences

## heparin
RBD
  Kd: 1000 nM

## CC(=O)N[C@H]1[C@H]([C@H](O)[C@H](O)CO)O[C@](O)(C(=O)O)C(F)[C@@H]1O (some centres unmarked) [3FNeu5Ac]
[3]
  decrease in pseudotyped lentivirus infectivity: 30–40%
ACE2
  ACE2 levels after ST inhibition: did not alter
ACE2+ HEK293 cells [5]
  Sia on the cell surface (SNA and PNA staining): substantially decreased
ACE2+ HEK293 cells [4]; 300 μM, 72 h
  RBD binding to treated cells: consistently decreased
Control lentivirus
  viral entry of control lentivirus: no differences were observed
Vero-E6 cells
  RBD binding to treated Vero-E6 cells: decrease in RBD binding

## β-D-GalNAc-(1→4)-[α-D-Neu5Ac-(2→3)]-β-D-Gal-(1→4)-β-D-Glc-ceramide [GM2]
SARS-CoV-2 RBD [2]
  ganglioside ions released from RBD complexes (nanodisc): measured

## neuraminidase from Vibrio cholerae
[6]
  decrease of SARS-CoV-2 RBD binding: ~80%
Vero-E6 cells
  decrease of SARS-CoV-2 RBD binding: ~80%

## β-D-Gal-(1→3)-β-D-GalNAc-(1→4)-[α-D-Neu5Ac-(2→3)]-β-D-Gal-(1→4)-β-D-Glc-ceramide [GM1]
SARS-CoV-2 RBD [2]
  ganglioside ions released from RBD complexes (nanodisc): measured

## α-D-Neu5Ac-(2→3)-β-D-Gal-(1→4)-β-D-Glc-ceramide [GM3]
SARS-CoV-2 RBD [2]
  ganglioside ions released from RBD complexes (nanodisc): measured

## CC(=O)N[C@H]1[C@H]([C@H](O)[C@H](O)CO)O[C@@](O[C@H]2[C@@H](O)[C@@H](CO)O[C@@H](O[C@H]3[C@H](O)[C@@H](O)C(O)O[C@@H]3CO)[C@@H]2O)(C(=O)O)C[C@@H]1O (some centres unmarked) [3′-sialyllactose]
SARS-CoV-2 S1 protein
  Kd: millimolar

## β-D-GalNAc-(1→4)-[α-D-Neu5Ac-(2→8)-α-D-Neu5Ac-(2→3)]-β-D-Gal-(1→4)-β-D-Glc-ceramide [GD2]
SARS-CoV-2 RBD [2]
  ganglioside ions released from RBD complexes (nanodisc): no signals

## α-D-Neu5Ac-(2→3)-β-D-Gal-(1→3)-β-D-GalNAc-(1→4)-[α-D-Neu5Ac-(2→3)]-β-D-Gal-(1→4)-β-D-Glc-ceramide [GD1a]
SARS-CoV-2 RBD [2]
  ganglioside ions released from RBD complexes (nanodisc): no signals

## α-Gal-Lewis X [glycan 50]
SARS-CoV-2 S protein
  relative CaR-ESI-MS response of ligand released from S protein: enhanced
